Reference: patent US20230295234A1, “ANTIMICROBIAL PEPTIDOMIMETICS” (SPEXIS AG, priority 2020, published 2023)
Read-outs that look alike come from different tables or passages of the source. Bridge positions count the residues as written; N and C are the ends. Square brackets hold non-standard residues; d marks the D form. Peptide text beside a SMILES is read from it. Pro(4R-NH2) = N[C@H]1CN[C@H](C(=O)O)C1; Gly(N-2-aminoethyl) = NCCNCC(=O)O; Hyp = O=C(O)[C@@H]1C[C@@H](O)CN1; Pen = CC(C)(S)[C@H](N)C(=O)O; dDab = NCC[C@@H](N)C(=O)O; Nle = CCCC[C@H](N)C(=O)O; Orn = NCCC[C@H](N)C(=O)O; Dab = NCC[C@H](N)C(=O)O

Key:
[1] = test system: Klebsiella pneumoniae SSI3010; details: SSI3010
Outline: (§1)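 Activity is measured against peptides serially diluted two-fold in water with 0.002% final Polysorbate 80. The cells are in cation-adjusted MHII broth at roughly 5×10^5 CFU/mL, prepared from a 0.5 McFarland suspension in 0.85% NaCl.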

[2] = test system: Escherichia coli ATCC 25922; details: ATCC 25922
Outline: as §1

[3] = test system: Escherichia coli MCR-1 Af 45
Outline: as §1

[4] = test system: human red blood cells (hRBC); assay: Hemolysis of human red blood cells; assay type: cell-based; details: red cells of human, 1 h
Outline: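 PBS-washed human red blood cells (20% v/v) were incubated with peptide at 200 μg/mL for 1 h at 37 °C with shaking. Supernatant OD was read at 540 nm after 8-fold dilution. Hemolysis is expressed as percent of the water control.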

Row | SMILES | Klebsiella pneumoniae SSI3010 MIC [1] [mg/L] | Escherichia coli ATCC 25922 MIC [2] [mg/L] | Escherichia coli MCR-1 Af 45 MIC ([3]; MCR-1 Af 45) [mg/L] | Hemolysis at 0.2 g/L [4] [%] | Escherichia coli MCR-1 Af 45 MIC ([3]; Mueller-Hinton broth II, 18-20 hours at 35° C.) [mg/L]
1 | CC[C@H](C)[C@H](NC(=O)[C@@H]1C[C@@H](O)CN1C(=O)[C@@H](NC(=O)[C@@H]1C[C@@H](N)CN1C(=O)[C@@H](N)CCCCN)C(C)C)C(=O)N[C@H](C(=O)N[C@@H](Cc1ccc(O)cc1)C(=O)N[C@@H]1C(=O)N[C@@H](CC(N)=O)C(=O)N[C@@H](CCCNC(=N)N)C(=O)N[C@@H](CCN)C(=O)N[C@@H]([C@@H](C)O)C(=O)N[C@H](CCN)C(=O)N[C@@H](CCCCN)C(=O)N[C@H](C(=O)N[C@@H](CCN)C(=O)N[C@@H](CCCNC(=N)N)C(=O)N[C@@H](Cc2ccc(O)cc2)C(=O)O)CSSC1(C)C)[C@@H](C)O [Example 50, Lys-Pro((4R)NH2)-Val-Hyp-Ile-Thr-Tyr-Pen-Asn-Arg-Dab-Thr-^DDab-Lys-Cys-Dab-Arg-Tyr] (HELM PEPTIDE1{K.[N[C@@H]1C[C@@H](C(=O)[*:2])N([*:1])C1].V.[Hyp].I.T.Y.[Pen].N.R.[Dab].T.[NCC[C@@H](N[*:1])C(=O)[*:2]].K.C.[Dab].R.Y}$PEPTIDE1,PEPTIDE1,8:R3-15:R3$$$V2.0) | 0.125 | 0.125 | 0.0625 | 0 | 
2 | CC[C@H](C)[C@H](NC(=O)[C@@H]1C[C@@H](O)CN1C(=O)[C@@H](NC(=N)N)C(C)C)C(=O)N[C@H](C(=O)N[C@@H](Cc1ccc(O)cc1)C(=O)N[C@@H]1C(=O)N[C@@H](Cc2c[nH]cn2)C(=O)N[C@@H](CCCNC(=N)N)C(=O)N[C@@H](CCN)C(=O)N[C@@H]([C@@H](C)O)C(=O)N[C@H](CCN)C(=O)N[C@@H](CCCCN)C(=O)N[C@H](C(=O)N[C@@H](CCN)C(=O)N[C@@H](CCCNC(=N)N)C(=O)N[C@@H](Cc2ccc(O)cc2)C(=O)O)CSSC1(C)C)[C@@H](C)O [Example 194] (HELM PEPTIDE1{[CC(C)[C@H](NC(=N)N)C(=O)[*:2]].[Hyp].I.T.Y.[Pen].H.R.[Dab].T.[NCC[C@@H](N[*:1])C(=O)[*:2]].K.C.[Dab].R.Y}$PEPTIDE1,PEPTIDE1,6:R3-13:R3$$$V2.0) | 0.25 | 0.25 |  | 0 | 0.125
3 | CCCC[C@H](NC(=O)[C@H](CCCNC(=N)N)NC(=O)[C@H](CCCN)NC(=O)[C@@H]1CSSC(C)(C)[C@H](NC(=O)[C@H](Cc2ccc(O)cc2)NC(=O)[C@@H](NC(=O)[C@@H](NC(=O)CN(CCN)C(=O)[C@@H](NC(=O)CNCCN)C(C)C)[C@@H](C)CC)[C@@H](C)CC)C(=O)N[C@@H](CC(N)=O)C(=O)N[C@@H](CCCNC(=N)N)C(=O)N[C@@H](CCN)C(=O)N[C@@H]([C@@H](C)O)C(=O)N[C@H](CCN)C(=O)N[C@@H](CCCCN)C(=O)N1)C(=O)O [Example 15, Ndab-Val-Ndab-Ile-Ile-Tyr-Pen-Asn-Arg-Dab-Thr-^DDab-Lys-Cys-Orn-Arg-Nle] (H-[Gly(N-2-aminoethyl)]V[Gly(N-2-aminoethyl)]IIY[Pen]NR[Dab]T[dDab]KC[Orn]R[Nle]-OH; disulfide 7-14) | 0.25 | 0.125 | 0.125 | 0 | 
4 | CC[C@H](C)[C@H](NC(=O)[C@@H]1C[C@@H](N)CN1C(=O)[C@@H](NC(=O)[C@@H]1C[C@@H](O)CN1C(=O)CNCCN)C(C)C)C(=O)N[C@H](C(=O)N[C@@H](Cc1ccc(O)cc1)C(=O)N[C@@H]1C(=O)N[C@@H](CC(N)=O)C(=O)N[C@@H](CCCNC(=N)N)C(=O)N[C@@H](CCN)C(=O)N[C@@H]([C@@H](C)O)C(=O)N[C@H](CCN)C(=O)N[C@@H](CCCCN)C(=O)N[C@H](C(=O)N[C@@H](CCN)C(=O)N[C@@H](CCCNC(=N)N)C(=O)N[C@@H](Cc2ccc(O)cc2)C(=O)O)CSSC1(C)C)[C@@H](C)O [Example 44, Ndab-Hyp-Val-Pro((4R)NH2)-Ile-Thr-Tyr-Pen-Asn-Arg-Dab-Thr-^DDab-Lys-Cys-Dab-Arg-Tyr] (H-[Gly(N-2-aminoethyl)][Hyp]V[Pro(4R-NH2)]ITY[Pen]NR[Dab]T[dDab]KC[Dab]RY-OH; disulfide 8-15) | 0.25 | 0.25 | 0.125 | 0 | 

Second part, led by results:

Row | Klebsiella pneumoniae SSI3010 MIC [1] [mg/L] | Escherichia coli ATCC 25922 MIC [2] [mg/L] | Escherichia coli MCR-1 Af 45 MIC ([3]; MCR-1 Af 45) [mg/L] | SMILES | Hemolysis at 0.2 g/L [4] [%] | Escherichia coli MCR-1 Af 45 MIC ([3]; Mueller-Hinton broth II, 18-20 hours at 35° C.) [mg/L]
5 | ≤0.03125 | ≤0.03125 | ≤0.03125 | CC[C@H](C)[C@H](NC(=O)[C@@H](NC(=O)[C@@H]1CCCN1C(=O)[C@@H](NC(=O)[C@@H]1CCCN1C(=O)[C@H](CCCCN)NC(=O)CNCCCCN)C(C)C)[C@@H](C)CC)C(=O)N[C@@H](Cc1ccc(O)cc1)C(=O)N[C@H]1CSSC[C@@H](C(=O)N[C@@H](CCN)C(=O)N[C@@H](CCCNC(=N)N)C(=O)N[C@@H](Cc2ccc(O)cc2)C(=O)O)NC(=O)[C@H](CCCCN)NC(=O)[C@@H](CCN)NC(=O)[C@H]([C@@H](C)O)NC(=O)[C@H](CCN)NC(=O)[C@H](CCCNC(=N)N)NC(=O)[C@H](CC(N)=O)NC1=O [Example 97] (HELM PEPTIDE1{[NCCCCNCC(=O)[*:2]].K.P.V.P.I.I.Y.C.N.R.[Dab].T.[NCC[C@@H](N[*:1])C(=O)[*:2]].K.C.[Dab].R.Y}$PEPTIDE1,PEPTIDE1,9:R3-16:R3$$$V2.0; N-terminus assumed) | 0 | 
6 | 0.125 | 0.0625 | 0.0625 | CC[C@H](C)[C@H](NC(=O)[C@@H]1C[C@@H](O)CN1C(=O)[C@@H](NC(=O)[C@@H]1CCCN1C(=O)[C@H](CCCCN)NC(=O)[C@@H](N)CCCCN)C(C)C)C(=O)N[C@H](C(=O)N[C@@H](Cc1ccc(O)cc1)C(=O)N[C@@H]1C(=O)N[C@@H](CC(N)=O)C(=O)N[C@@H](CCCNC(=N)N)C(=O)N[C@@H](CCN)C(=O)N[C@@H]([C@@H](C)O)C(=O)N[C@H](CCN)C(=O)N[C@@H](CCCCN)C(=O)N[C@H](C(=O)N[C@@H](CCN)C(=O)N[C@@H](CCCNC(=N)N)C(=O)N[C@@H](Cc2ccc(O)cc2)C(=O)O)CSSC1(C)C)[C@@H](C)O [Example 118, Lys-Lys-Pro-Val-Hyp-Ile-Thr-Tyr-Pen-Asn-Arg-Dab-Thr-^DDab-Lys-Cys-Dab-Arg-Tyr] (HELM PEPTIDE1{K.K.P.V.[Hyp].I.T.Y.[Pen].N.R.[Dab].T.[NCC[C@@H](N[*:1])C(=O)[*:2]].K.C.[Dab].R.Y}$PEPTIDE1,PEPTIDE1,9:R3-16:R3$$$V2.0) | 0 | 
7 | 0.0625 | 0.0625 | ≤0.03125 | CC[C@H](C)[C@H](NC(=O)[C@@H]1CCCN1C(=O)[C@@H](NC(=O)CN(C)C(=O)[C@H](CCCNC(=N)N)NC(=O)[C@@H](N)CCCCN)C(C)C)C(=O)N[C@@H](Cc1ccccc1)C(=O)N[C@@H](Cc1ccc(O)cc1)C(=O)N[C@@H]1C(=O)N[C@@H](CC(N)=O)C(=O)N[C@@H](CCCNC(=N)N)C(=O)N[C@@H](CCN)C(=O)N[C@@H]([C@@H](C)O)C(=O)N[C@H](CCN)C(=O)N[C@@H](CCCCN)C(=O)N[C@H](C(=O)N[C@@H](CCN)C(=O)N[C@@H](CCCNC(=N)N)C(=O)N[C@@H](Cc2ccc(O)cc2)C(=O)O)CSSC1(C)C [Example 89, Lys-Arg-Sar-Val-Pro-Ile-Phe-Tyr-Pen-Asn-Arg-Dab-Thr-^DDab-Lys-Cys-Dab-Arg-Tyr] (HELM PEPTIDE1{K.R.[Sar].V.P.I.F.Y.[Pen].N.R.[Dab].T.[NCC[C@@H](N[*:1])C(=O)[*:2]].K.C.[Dab].R.Y}$PEPTIDE1,PEPTIDE1,9:R3-16:R3$$$V2.0) | 0 | 
8 | 0.125 | 0.0625 | 0.0625 | CC[C@H](C)[C@H](NC(=O)[C@@H](NC(=O)[C@@H]1CCCN1C(=O)[C@@H](NC(=O)[C@@H]1CCCN1C(=O)[C@H](CCCCN)NC(=O)[C@@H](N)CCCCN)C(C)C)[C@@H](C)CC)C(=O)N[C@@H](Cc1ccc(O)cc1)C(=O)N[C@H]1CSSC[C@@H](C(=O)N[C@@H](CCN)C(=O)N[C@@H](CCCNC(=N)N)C(=O)N[C@@H](CC2CCOCC2)C(=O)O)NC(=O)[C@H](CCCCN)NC(=O)[C@@H](CCN)NC(=O)[C@H]([C@@H](C)O)NC(=O)[C@H](CCN)NC(=O)[C@H](CCCNC(=N)N)NC(=O)[C@H](CC(N)=O)NC1=O [Example 80] (HELM PEPTIDE1{K.K.P.V.P.I.I.Y.C.N.R.[Dab].T.[NCC[C@@H](N[*:1])C(=O)[*:2]].K.C.[Dab].R.[O=C(O)[C@H](CC1CCOCC1)N[*:1]]}$PEPTIDE1,PEPTIDE1,9:R3-16:R3$$$V2.0) | 0 | 
9 | 0.125 | 0.0625 | 0.0625 | CCC(CC)[C@H](NC(=O)[C@H](CCCNC(=N)N)NC(=O)[C@H](CCN)NC(=O)[C@@H]1CSSC[C@H](NC(=O)[C@H](Cc2ccc(O)cc2)NC(=O)[C@@H](NC(=O)[C@@H](NC(=O)[C@@H]2CCCN2C(=O)[C@@H](NC(=O)[C@@H]2CCCN2C(=O)[C@H](CCCCN)NC(=O)[C@@H](N)CCCCN)C(C)C)[C@@H](C)CC)[C@@H](C)CC)C(=O)N[C@@H](CC(N)=O)C(=O)N[C@@H](CCCNC(=N)N)C(=O)N[C@@H](CCN)C(=O)N[C@@H]([C@@H](C)O)C(=O)N[C@H](CCN)C(=O)N[C@@H](CCCCN)C(=O)N1)C(=O)O [Example 82] (HELM PEPTIDE1{K.K.P.V.P.I.I.Y.C.N.R.[Dab].T.[NCC[C@@H](N[*:1])C(=O)[*:2]].K.C.[Dab].R.[CCC(CC)[C@H](N[*:1])C(=O)O]}$PEPTIDE1,PEPTIDE1,9:R3-16:R3$$$V2.0) | 0 | 
